In the NIST ThermoML archive (doi:10.1021/je900437b):
Numbers after ± are expanded uncertainties.

Experiment: xn = mol fraction of the nth substance listed
Conditions: 101 kPa, Liquid; for speed of sound: Sing-around technique in a fixed-path interferometer; for mass density: Vibrating tube method

OCCN(CCO)CCO [triethanolamine] + NCCO
Conditions | mass density [kg/m3] | speed of sound [m/s]
298.15 K, x2 = 0 | 1120.82 ± 0.33 | 1610.5 ± 1.3
298.15 K, x2 = 0.1159 | 1116.38 ± 0.32 | 1625.2 ± 1.3
298.15 K, x2 = 0.2165 | 1111.37 ± 0.32 | 1637.8 ± 1.3
298.15 K, x2 = 0.3017 | 1106.52 ± 0.32 | 1648.4 ± 1.3
298.15 K, x2 = 0.3788 | 1101.52 ± 0.31 | 1658.1 ± 1.3
298.15 K, x2 = 0.4492 | 1096.35 ± 0.31 | 1666.8 ± 1.3
298.15 K, x2 = 0.5121 | 1091.14 ± 0.31 | 1674.3 ± 1.3
298.15 K, x2 = 0.6192 | 1080.56 ± 0.3 | 1686.4 ± 1.3
298.15 K, x2 = 0.7099 | 1069.5 ± 0.29 | 1695.9 ± 1.3
298.15 K, x2 = 0.7849 | 1058.49 ± 0.28 | 1702.7 ± 1.3
298.15 K, x2 = 0.8509 | 1046.99 ± 0.27 | 1708 ± 1.3
298.15 K, x2 = 0.907 | 1035.53 ± 0.26 | 1712.1 ± 1.3
298.15 K, x2 = 0.9561 | 1023.91 ± 0.25 | 1715.6 ± 1.3
303.15 K, x2 = 0 | 1118.06 ± 0.32 | 1600.5 ± 1.3
303.15 K, x2 = 0.1159 | 1113.44 ± 0.32 | 1615.2 ± 1.3
303.15 K, x2 = 0.2165 | 1108.35 ± 0.32 | 1628 ± 1.3
303.15 K, x2 = 0.3017 | 1103.4 ± 0.31 | 1638.7 ± 1.3
303.15 K, x2 = 0.3788 | 1098.32 ± 0.31 | 1648.3 ± 1.3
303.15 K, x2 = 0.4492 | 1093.05 ± 0.31 | 1656.7 ± 1.3
303.15 K, x2 = 0.5121 | 1087.76 ± 0.3 | 1663.9 ± 1.3
303.15 K, x2 = 0.6192 | 1077.07 ± 0.29 | 1675.3 ± 1.3
303.15 K, x2 = 0.7099 | 1065.88 ± 0.28 | 1683.4 ± 1.3
303.15 K, x2 = 0.7849 | 1054.74 ± 0.28 | 1689.1 ± 1.3
303.15 K, x2 = 0.8509 | 1043.15 ± 0.27 | 1693.5 ± 1.3
303.15 K, x2 = 0.907 | 1031.61 ± 0.26 | 1697.1 ± 1.3
303.15 K, x2 = 0.9561 | 1019.93 ± 0.24 | 1700.3 ± 1.3
308.15 K, x2 = 0 | 1115.26 ± 0.32 | 1595.5 ± 1.3
308.15 K, x2 = 0.1159 | 1110.42 ± 0.32 | 1610 ± 1.3
308.15 K, x2 = 0.2165 | 1105.26 ± 0.31 | 1622.1 ± 1.3
308.15 K, x2 = 0.3017 | 1100.25 ± 0.31 | 1632 ± 1.3
308.15 K, x2 = 0.3788 | 1095.08 ± 0.31 | 1640.8 ± 1.3
308.15 K, x2 = 0.4492 | 1089.75 ± 0.3 | 1648.6 ± 1.3
308.15 K, x2 = 0.5121 | 1084.39 ± 0.3 | 1655.1 ± 1.3
308.15 K, x2 = 0.6192 | 1073.56 ± 0.29 | 1665 ± 1.3
308.15 K, x2 = 0.7099 | 1062.26 ± 0.28 | 1671.8 ± 1.3
308.15 K, x2 = 0.7849 | 1051.01 ± 0.27 | 1676.7 ± 1.3
308.15 K, x2 = 0.8509 | 1039.31 ± 0.26 | 1680.6 ± 1.3
308.15 K, x2 = 0.907 | 1027.72 ± 0.25 | 1683.5 ± 1.3
308.15 K, x2 = 0.9561 | 1015.99 ± 0.24 | 1685.9 ± 1.3
313.15 K, x2 = 0 | 1112.4 ± 0.32 | 1587 ± 1.3
313.15 K, x2 = 0.1159 | 1107.47 ± 0.32 | 1601.8 ± 1.3
313.15 K, x2 = 0.2165 | 1102.16 ± 0.31 | 1613.9 ± 1.3
313.15 K, x2 = 0.3017 | 1097.05 ± 0.31 | 1623.6 ± 1.3
313.15 K, x2 = 0.3788 | 1091.8 ± 0.3 | 1631.9 ± 1.3
313.15 K, x2 = 0.4492 | 1086.4 ± 0.3 | 1639.2 ± 1.3
313.15 K, x2 = 0.5121 | 1080.99 ± 0.3 | 1645.2 ± 1.3
313.15 K, x2 = 0.6192 | 1070.01 ± 0.29 | 1654.6 ± 1.3
313.15 K, x2 = 0.7099 | 1058.62 ± 0.28 | 1661.1 ± 1.3
313.15 K, x2 = 0.7849 | 1047.27 ± 0.27 | 1665.1 ± 1.3
313.15 K, x2 = 0.8509 | 1035.49 ± 0.26 | 1667.6 ± 1.3
313.15 K, x2 = 0.907 | 1023.83 ± 0.25 | 1669 ± 1.3
313.15 K, x2 = 0.9561 | 1012.03 ± 0.24 | 1670 ± 1.3
318.15 K, x2 = 0 | 1109.6 ± 0.32 | 1578.8 ± 1.3
318.15 K, x2 = 0.1159 | 1104.53 ± 0.31 | 1593.8 ± 1.3
318.15 K, x2 = 0.2165 | 1099.15 ± 0.31 | 1605.9 ± 1.3
318.15 K, x2 = 0.3017 | 1093.95 ± 0.3 | 1614.8 ± 1.3
318.15 K, x2 = 0.3788 | 1088.58 ± 0.3 | 1622.6 ± 1.3
318.15 K, x2 = 0.4492 | 1083.06 ± 0.3 | 1629.4 ± 1.3
318.15 K, x2 = 0.5121 | 1077.57 ± 0.29 | 1635.1 ± 1.3
318.15 K, x2 = 0.6192 | 1066.47 ± 0.28 | 1643.9 ± 1.3
318.15 K, x2 = 0.7099 | 1054.94 ± 0.28 | 1649.5 ± 1.3
318.15 K, x2 = 0.7849 | 1043.54 ± 0.27 | 1652.8 ± 1.3
318.15 K, x2 = 0.8509 | 1031.7 ± 0.26 | 1654.6 ± 1.3
318.15 K, x2 = 0.907 | 1019.92 ± 0.25 | 1655.3 ± 1.3
318.15 K, x2 = 0.9561 | 1008.07 ± 0.24 | 1655.3 ± 1.3
323.15 K, x2 = 0 | 1106.78 ± 0.32 | 1570.6 ± 1.3
323.15 K, x2 = 0.1159 | 1101.56 ± 0.31 | 1585.9 ± 1.3
323.15 K, x2 = 0.2165 | 1096.03 ± 0.31 | 1597.2 ± 1.3
323.15 K, x2 = 0.3017 | 1090.73 ± 0.3 | 1605.9 ± 1.3
323.15 K, x2 = 0.3788 | 1085.31 ± 0.3 | 1613.5 ± 1.3
323.15 K, x2 = 0.4492 | 1079.76 ± 0.29 | 1620.1 ± 1.3
323.15 K, x2 = 0.5121 | 1074.18 ± 0.29 | 1625.6 ± 1.3
323.15 K, x2 = 0.6192 | 1062.92 ± 0.28 | 1633.2 ± 1.3
323.15 K, x2 = 0.7099 | 1051.26 ± 0.27 | 1637.5 ± 1.3
323.15 K, x2 = 0.7849 | 1039.74 ± 0.26 | 1639.8 ± 1.3
323.15 K, x2 = 0.8509 | 1027.82 ± 0.25 | 1641.3 ± 1.3
323.15 K, x2 = 0.907 | 1016 ± 0.24 | 1641.8 ± 1.3
323.15 K, x2 = 0.9561 | 1004.09 ± 0.23 | 1641 ± 1.3
